*1 amine or outer side, *2 acyl side, *3 side chain or, on linkers, in order; H or OH if unused. Where a SMILES comes first, the peptide text is derived from it. Bridges are numbered along the chain shown (N, C = ends). [ ]: non-standard residue; d: D form. The star is where a group is joined. hTyr(3S-OH,4S-OH,3'-OSO3H) = N[C@H](C(=O)O)[C@H](O)[C@@H](O)c1ccc(O)c(OS(=O)(=O)O)c1; Orn(4R-OH,5R-OH) = O=C([C@H](C[C@@H](O)[C@@H](O)N[*:3])N[*:1])[*:2]; Pro(3S-OH,4S-Me) = C[C@H]1CN[C@H](C(=O)O)[C@H]1O; X1 = CCCCCOc1ccc(-c2cc(-c3ccc(C(=O)*)cc3)no2)cc1; Gln(3R-OH) = NC(=O)C[C@@H](O)[C@H](N)C(=O)O; Hyp = O=C(O)[C@@H]1C[C@@H](O)CN1
Tests used:
[1] = target: T1, Alpha-1A adrenergic receptor (Homo sapiens, UniProt P35348); type: functional, cell-based
T1 sequence (P35348 whole entry): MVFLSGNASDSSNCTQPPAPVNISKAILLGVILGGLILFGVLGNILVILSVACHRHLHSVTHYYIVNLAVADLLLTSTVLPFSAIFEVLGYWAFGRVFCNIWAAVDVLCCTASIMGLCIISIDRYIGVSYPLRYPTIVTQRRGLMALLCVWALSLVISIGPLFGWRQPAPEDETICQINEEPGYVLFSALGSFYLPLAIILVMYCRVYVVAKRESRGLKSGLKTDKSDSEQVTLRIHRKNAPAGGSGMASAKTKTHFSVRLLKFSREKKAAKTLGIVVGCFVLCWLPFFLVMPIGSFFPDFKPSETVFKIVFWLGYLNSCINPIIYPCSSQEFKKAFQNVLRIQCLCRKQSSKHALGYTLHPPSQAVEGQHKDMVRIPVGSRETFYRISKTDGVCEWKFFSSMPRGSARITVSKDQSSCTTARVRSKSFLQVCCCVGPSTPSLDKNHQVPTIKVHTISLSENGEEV

Glucocorticoid receptor = target: T2, Glucocorticoid receptor (Homo sapiens, UniProt P04150)
T2 sequence (P04150 whole entry): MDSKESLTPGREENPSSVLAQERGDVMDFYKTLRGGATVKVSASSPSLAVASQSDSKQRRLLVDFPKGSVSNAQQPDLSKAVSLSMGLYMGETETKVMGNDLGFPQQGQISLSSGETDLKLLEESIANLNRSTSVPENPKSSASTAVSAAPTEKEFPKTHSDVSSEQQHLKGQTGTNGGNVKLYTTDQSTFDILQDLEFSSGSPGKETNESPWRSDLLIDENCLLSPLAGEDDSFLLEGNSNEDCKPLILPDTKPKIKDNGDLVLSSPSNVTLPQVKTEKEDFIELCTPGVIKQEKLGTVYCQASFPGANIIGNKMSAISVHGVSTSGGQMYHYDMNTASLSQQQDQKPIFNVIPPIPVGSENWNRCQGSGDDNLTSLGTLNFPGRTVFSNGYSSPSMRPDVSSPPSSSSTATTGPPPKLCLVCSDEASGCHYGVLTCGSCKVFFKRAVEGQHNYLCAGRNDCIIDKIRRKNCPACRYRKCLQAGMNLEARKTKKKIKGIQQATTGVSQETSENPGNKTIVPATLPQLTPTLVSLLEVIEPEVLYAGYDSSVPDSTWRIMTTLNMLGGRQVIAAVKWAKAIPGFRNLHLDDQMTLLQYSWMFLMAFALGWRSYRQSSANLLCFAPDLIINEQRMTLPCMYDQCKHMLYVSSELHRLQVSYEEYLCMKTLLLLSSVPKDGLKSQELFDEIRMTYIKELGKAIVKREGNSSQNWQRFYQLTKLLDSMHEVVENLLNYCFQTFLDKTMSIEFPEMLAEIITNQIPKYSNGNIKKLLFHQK

[2] = target: T3, Muscarinic acetylcholine receptor M2 (Homo sapiens, UniProt P08172); type: functional, cell-based
T3 sequence (P08172 whole entry): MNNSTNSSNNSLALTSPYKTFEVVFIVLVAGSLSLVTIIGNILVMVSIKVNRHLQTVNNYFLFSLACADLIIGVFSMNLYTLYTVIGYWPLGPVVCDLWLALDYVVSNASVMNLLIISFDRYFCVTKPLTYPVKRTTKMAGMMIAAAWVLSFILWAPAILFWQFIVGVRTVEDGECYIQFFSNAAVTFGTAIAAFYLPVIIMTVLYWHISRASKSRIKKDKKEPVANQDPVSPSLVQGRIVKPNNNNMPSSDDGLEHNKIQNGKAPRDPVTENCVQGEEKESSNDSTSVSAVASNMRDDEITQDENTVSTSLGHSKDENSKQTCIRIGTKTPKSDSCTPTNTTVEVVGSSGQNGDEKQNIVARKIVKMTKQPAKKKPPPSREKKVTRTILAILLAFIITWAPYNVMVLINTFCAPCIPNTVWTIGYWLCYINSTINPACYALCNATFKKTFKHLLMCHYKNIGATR

[3] = target: Sodium-dependent dopamine transporter (Homo sapiens, UniProt Q01959)
Sodium-dependent dopamine transporter, sequence (Q01959 whole entry): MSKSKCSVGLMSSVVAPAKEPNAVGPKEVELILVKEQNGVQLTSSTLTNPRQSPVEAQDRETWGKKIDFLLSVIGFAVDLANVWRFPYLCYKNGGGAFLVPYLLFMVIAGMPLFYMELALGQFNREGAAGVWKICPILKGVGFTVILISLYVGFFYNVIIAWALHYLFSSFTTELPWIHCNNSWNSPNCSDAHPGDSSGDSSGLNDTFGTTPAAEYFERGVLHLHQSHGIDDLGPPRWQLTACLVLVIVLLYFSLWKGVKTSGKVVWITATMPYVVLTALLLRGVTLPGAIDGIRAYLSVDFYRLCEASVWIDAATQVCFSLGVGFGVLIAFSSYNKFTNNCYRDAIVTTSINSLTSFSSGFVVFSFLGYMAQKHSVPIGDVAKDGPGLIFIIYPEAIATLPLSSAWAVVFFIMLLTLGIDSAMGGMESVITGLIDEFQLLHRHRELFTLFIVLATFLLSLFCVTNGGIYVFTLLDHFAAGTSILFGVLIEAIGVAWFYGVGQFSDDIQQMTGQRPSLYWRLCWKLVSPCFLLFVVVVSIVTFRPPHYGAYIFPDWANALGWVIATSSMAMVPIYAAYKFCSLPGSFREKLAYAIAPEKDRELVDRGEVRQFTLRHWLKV

[4] = target: T4, Alpha-2C adrenergic receptor (Homo sapiens, UniProt P18825); type: functional
T4 sequence (P18825 whole entry): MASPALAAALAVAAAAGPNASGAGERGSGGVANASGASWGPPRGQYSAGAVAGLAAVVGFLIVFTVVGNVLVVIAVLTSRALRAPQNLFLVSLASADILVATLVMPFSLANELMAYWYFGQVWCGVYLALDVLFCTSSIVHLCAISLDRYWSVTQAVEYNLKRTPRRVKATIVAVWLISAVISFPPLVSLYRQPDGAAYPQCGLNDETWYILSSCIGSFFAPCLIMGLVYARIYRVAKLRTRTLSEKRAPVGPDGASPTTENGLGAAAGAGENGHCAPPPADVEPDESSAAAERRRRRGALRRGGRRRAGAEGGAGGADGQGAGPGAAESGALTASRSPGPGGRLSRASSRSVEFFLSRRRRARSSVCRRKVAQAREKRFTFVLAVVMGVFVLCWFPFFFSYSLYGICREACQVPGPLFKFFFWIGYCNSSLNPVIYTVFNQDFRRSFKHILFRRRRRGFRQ

Cannabinoid receptor 1 = Cannabinoid receptor 1 (Homo sapiens, UniProt P21554); type: functional, cell-based
Cannabinoid receptor 1, sequence (P21554 whole entry): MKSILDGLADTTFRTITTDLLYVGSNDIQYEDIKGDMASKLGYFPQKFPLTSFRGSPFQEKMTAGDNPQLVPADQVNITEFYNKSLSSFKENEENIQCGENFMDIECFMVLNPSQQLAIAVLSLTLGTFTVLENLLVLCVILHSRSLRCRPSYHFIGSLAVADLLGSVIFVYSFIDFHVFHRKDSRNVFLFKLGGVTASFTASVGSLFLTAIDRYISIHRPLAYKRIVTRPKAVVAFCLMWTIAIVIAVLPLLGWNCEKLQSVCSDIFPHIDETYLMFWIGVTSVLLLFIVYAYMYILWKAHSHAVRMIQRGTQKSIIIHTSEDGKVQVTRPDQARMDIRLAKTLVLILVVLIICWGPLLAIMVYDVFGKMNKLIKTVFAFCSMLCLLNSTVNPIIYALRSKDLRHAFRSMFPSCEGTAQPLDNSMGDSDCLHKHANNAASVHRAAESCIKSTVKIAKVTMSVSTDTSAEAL

[5] = target: T5, Alpha-2A adrenergic receptor (Homo sapiens, UniProt P08913); type: functional, cell-based
T5 sequence (P08913 whole entry): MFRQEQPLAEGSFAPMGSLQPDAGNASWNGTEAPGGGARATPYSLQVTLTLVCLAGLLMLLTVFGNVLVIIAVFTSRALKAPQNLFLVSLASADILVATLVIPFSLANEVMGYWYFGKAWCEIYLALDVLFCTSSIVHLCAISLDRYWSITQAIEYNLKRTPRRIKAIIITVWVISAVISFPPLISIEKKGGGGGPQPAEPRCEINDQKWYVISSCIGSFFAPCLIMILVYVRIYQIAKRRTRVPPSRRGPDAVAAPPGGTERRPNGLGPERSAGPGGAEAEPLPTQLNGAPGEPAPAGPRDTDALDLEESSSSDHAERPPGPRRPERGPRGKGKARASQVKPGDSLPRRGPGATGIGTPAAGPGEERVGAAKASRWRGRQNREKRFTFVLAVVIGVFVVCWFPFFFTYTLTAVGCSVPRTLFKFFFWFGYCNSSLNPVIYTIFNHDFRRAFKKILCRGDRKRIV
Also: assay procedure not described here.

Structure (SMILES): CC(C)(N)C(=O)N[C@H](Cc1c[nH]c2ccccc12)C(=O)N[C@H](Cc1c[nH]c2ccccc12)NC=O [MACIMORELIN]
- AC50 [1]: > 30 µM

Structure (SMILES): C=C1c2c(Cl)ccc(O)c2C(=O)C2=C(O)[C@]3(O)C(=O)C(C(N)=O)=C(O)[C@@H](N(C)C)[C@@H]3[C@@H](O)[C@H]12 [MECLOCYCLINE]
- AC50 [1]: > 30 µM

Structure (SMILES): Cc1cc2c(OCC(O)CNC(C)C)cccc2[nH]1 (centres undefined) [MEPINDOLOL]
- AC50 [1]: > 30 µM

Structure (SMILES): CCCCCOc1ccc(-c2cc(-c3ccc(C(=O)N[C@H]4C[C@@H](O)[C@@H](O)NC(=O)[C@@H]5[C@@H](O)[C@@H](C)CN5C(=O)[C@H]([C@H](O)CC(N)=O)NC(=O)[C@H]([C@H](O)[C@@H](O)c5ccc(O)c(OS(=O)(=O)O)c5)NC(=O)[C@@H]5C[C@@H](O)CN5C(=O)[C@H]([C@@H](C)O)NC4=O)cc3)no2)cc1 [MICAFUNGIN] (X1-[Orn(4R-OH,5R-OH)]T[Hyp][hTyr(3S-OH,4S-OH,3'-OSO3H)][Gln(3R-OH)][Pro(3S-OH,4S-Me)]; lactam 1-C)
- AC50 [1]: > 30 µM

Structure (SMILES): CCOc1cc(N)c(Cl)cc1C(=O)NCC1CN(Cc2ccc(F)cc2)CCO1 (centres undefined) [MOSAPRIDE]
- AC50 [1]: > 30 µM

Structure (SMILES): CCOc1ccc2ccccc2c1C(=O)N[C@@H]1C(=O)N2[C@@H]1SC(C)(C)[C@@H]2C(=O)O [NAFCILLIN]
- AC50 [1]: > 30 µM

Structure (SMILES): CN1CCC[C@H]1c1cccnc1 [NICOTINE]
- AC50 [1]: > 30 µM

Structure (SMILES): C#C[C@]1(O)CC[C@H]2[C@@H]3CCC4=C(CCC(=O)C4)[C@H]3CC[C@@]21C [NORETHYNODREL]
- AC50 [1]: 17.4 µM

Structure (SMILES): CCCCCCCCCCC[C@@H](C[C@@H]1OC(=O)[C@H]1CCCCCC)OC(=O)[C@H](CC(C)C)NC=O [ORLISTAT]
- AC50 [1]: > 30 µM

Structure (SMILES): COc1ccnc(C[S+]([O-])c2nc3ccc(OC(F)F)cc3[nH]2)c1OC (centres undefined) [PANTOPRAZOLE]
- AC50 (Glucocorticoid receptor): > 30 µM
- AC50 [2]: > 10 µM
- AC50 [3]: > 10 µM
- AC50 [4]: > 10 µM
- AC50 (Cannabinoid receptor 1): > 30 µM
- AC50 [5]: > 10 µM

Structure (SMILES): O=C1[C@H]2CCCC[C@H]2C(=O)N1CCCCN1CCN(c2nsc3ccccc23)CC1 [PEROSPIRONE]
- AC50 [1]: 0.003 µM

Structure (SMILES): O=C1NC(=O)C(c2ccccc2)(c2ccccc2)N1 [PHENYTOIN]
- AC50 (Glucocorticoid receptor): > 30 µM
- AC50 [2]: > 30 µM
- AC50 [3]: > 30 µM
- AC50 [4]: > 30 µM
- AC50 (Cannabinoid receptor 1): > 30 µM
- AC50 [5]: > 30 µM

Structure (SMILES): CC(C)C[C@H](CN)CC(=O)O [PREGABALIN]
- AC50 (Glucocorticoid receptor): > 30 µM
- AC50 [2]: > 30 µM
- AC50 [3]: > 30 µM
- AC50 [4]: > 30 µM
- AC50 (Cannabinoid receptor 1): > 30 µM
- AC50 [5]: > 30 µM

Structure (SMILES): NC(=O)c1ncn([C@@H]2O[C@H](CO)[C@@H](O)[C@H]2O)n1 [RIBAVIRIN]
- AC50 (Glucocorticoid receptor): > 10 µM
- AC50 [2]: > 10 µM
- AC50 [3]: > 10 µM
- AC50 [4]: > 10 µM
- AC50 (Cannabinoid receptor 1): > 30 µM
- AC50 [5]: > 10 µM

Structure (SMILES): O=C(Nc1c(Cl)cncc1Cl)c1ccc(OC(F)F)c(OCC2CC2)c1 [ROFLUMILAST]
- AC50 (Glucocorticoid receptor): > 30 µM
- AC50 [2]: > 30 µM
- AC50 [3]: > 30 µM
- AC50 [4]: > 30 µM
- AC50 (Cannabinoid receptor 1): > 30 µM
- AC50 [5]: > 30 µM

Structure (SMILES): CCCN(CCC)CCc1cccc2c1CC(=O)N2 [ROPINIROLE]
- AC50 (Glucocorticoid receptor): > 30 µM
- AC50 [2]: 23 µM
- AC50 [3]: > 30 µM
- AC50 [4]: > 30 µM
- AC50 (Cannabinoid receptor 1): > 30 µM
- AC50 [5]: > 30 µM

Structure (SMILES): CC(C)N(CCCCOCC(=O)NS(C)(=O)=O)c1cnc(-c2ccccc2)c(-c2ccccc2)n1 [SELEXIPAG]
- AC50 (Glucocorticoid receptor): > 30 µM
- AC50 [2]: > 30 µM
- AC50 [3]: > 30 µM
- AC50 [4]: > 30 µM
- AC50 (Cannabinoid receptor 1): > 30 µM
- AC50 [5]: > 30 µM

Structure (SMILES): CC(=O)S[C@@H]1CC2=CC(=O)CC[C@]2(C)[C@H]2CC[C@@]3(C)[C@@H](CC[C@@]34CCC(=O)O4)[C@H]12 [SPIRONOLACTONE]
- AC50 (Glucocorticoid receptor): 0.19 µM
- AC50 [2]: 26 µM
- AC50 [3]: > 30 µM
- AC50 [4]: > 30 µM
- AC50 (Cannabinoid receptor 1): > 30 µM
- AC50 [5]: > 30 µM

Structure (SMILES): Cc1cc(CC(=O)O)n(C)c1C(=O)c1ccc(Cl)cc1 [ZOMEPIRAC]
- AC50 (Glucocorticoid receptor): > 30 µM
- AC50 [2]: > 30 µM
- AC50 [3]: > 30 µM
- AC50 [4]: > 30 µM
- AC50 (Cannabinoid receptor 1): > 30 µM
- AC50 [5]: > 30 µM
